{"source": "patent US10617693B2", "about": "“Methods of treating and/or preventing actinic keratosis” (Athenex, Inc., priority 2017, dated 2020)", "test_system": "skin of forearm or forehead of AK patients", "experiment": "Comparison of skin reactions, photographs (FIGS. 3A-4B)", "assay_type": "in vivo, human", "source_text": "The comparison in FIGS. 3A, 3B, 4A, and 4B illustrates the lack of skin toxicity observed in the treatment of AK with topically administered KX-01 compared to the approved therapy for AK."}
{"smiles": "O=C(Cc1ccc(-c2ccc(OCCN3CCOCC3)cc2)cn1)NCc1ccccc1", "note": "[KX-01]", "values": [{"measurement": "Skin reaction in the forearm", "setting": "day 3 and day 5 of treatment", "result": "minimal or no adverse skin reactions"}, {"measurement": "Skin reaction in the forehead", "setting": "day 8 and day 57, subject with 100% response", "result": "minimal or no adverse skin reactions"}, {"measurement": "Skin reactions compared with Picato", "setting": "in vivo", "result": "fewer and less severe skin reactions"}, {"measurement": "Efficacy for clearing AK lesions compared with Picato", "setting": "initial data of Examples 1, 2a, 2b", "result": "may be similar"}]}
